Data on one compound can be found in patent US10982293B2, “Methods for improving plant resistance to soybean cyst nematode and compositions thereof” (Monsanto Technology LLC, priority 2014, dated 2021).

Holding throughout (type): in vivo, Heterodera glycines
For one test, the system named is race 2 SCN. The test can be described thus: Greenhouse study: SCN cysts on roots of soybean grown from treated seed, race 2 SCN challenge. Conditions: seed treatment, 2000-3000 SCN eggs, cysts counted after 28-30 days, mean of 6-8 replications, FIG. 3. The procedure: Various soybean lines were treated with the compound 3-phenyl-5-(thiophen-2-yl)-1,2,4-oxadiazole following standard industry protocols. The structure of 3-phenyl-5-(thiophen-2-yl)-1,2,4-oxadiazole is:
(§1) Untreated seed or seed treated only with a colorant were used as standard controls. Single soybean seed were planted in 3″×3″ pots filled with field soil mixed with sand and steam sterilized. Ten days after germination seedlings were inoculated with 2000-3000 SCN eggs isolated from cultures maintained on the appropriate soybean germplasm to maintain designated race. After inoculation, soil temperatures were maintained at 28° C. with 16-hour day-length for 28-30 days. On the last day of the incubation period, individual plants were uprooted. Cysts from each plant were collected by blasting the roots with pressurized water and washing the soil while trapping the released cysts on sieves. The collected cysts from individual plants were transferred to a counting dish. The total number of cysts from individual plants was counted under a dissecting microscope. Data is reported as the number of cysts collected from an individual pot and represent the mean of 6-8 replications.
All plants were treated with ACCELERON® (Monsanto Company, St. Louis, Mo., USA) to reduce fungal disease.

Test [1] has as its system SCN. The test can be described thus: Field trials (43): yield of treated PI88788-derived soybean lines under moderate to high nematode pressure. Conditions: seed treatment 0.50 mg AI/seed with Fungicide + Insecticide (Base 2); adjusted to 13% moisture. An excerpt:
Eleven different untreated and treated lines were planted in a total of 43 separate field trials with a single variety per location. The eleven lines were selected based on their resistance reactions to race 3 SCN. The eleven lines were developed from PI88788 source germplasm and display either moderate resistance or resistance to race 3 SCN. 3-Phenyl-5-(thiophen-2-yl)-1,2,4-oxadiazole was combined with commercial fungicides and insecticides in a tank slurry mix with colorant, polymer, and water at the recommended rates and allowed to mix thoroughly. Using a Gustafson continuous batch seed coater the seed batch was loaded, the treatment slurry was injected and the mixture was allowed to tumble for 35-40 seconds before being ejected into a paper storage bag. […] Sub-samples (˜ 1 pint of soil) were taken from each composite sample and placed in a plastic bag, with appropriate handling to ensure viability of nematodes, and sent to a lab for nematode quantification. […] Quantitative in-season nematode sampling using root and soil samples was conducted eight weeks after planting for trials. […] Samples were sent to a lab for nematode quantification. […] The data were calculated to represent bushels per acre by taking the grain weight over the square footage of each plot and adjusting to 13% moisture.

Test [2] deals with race 1 soybean cyst nematodes. The test can be described thus: Field tests: yield of treated and untreated soybean lines in race 1 SCN fields. Conditions: for yield, treated vs untreated: race 1 SCN. The procedure:
Prior to planting, seeds were treated with chemistry according to standard industry protocols. Six different untreated and treated lines were planted in eight plots. The six lines were selected based on resistance reaction to race 1 and race 3 SCN. […] The levels of resistance were determined essentially as described by Schmitt, D. P. and Shannon, G., Crop Sci., 32:275-277 (1992), according to Table 4. Soil cores were collected at emergence near the root zone of the plant. Multiple soil samples were taken, combined, and crushed into small evenly-sized particles. A sample aliquot was combined with water allowed to sit, then stirred. The sample was then poured into a funnel and processed in a soil elutriator. The sample was counted, with a final number being given as eggs per 100 cc of soil. Based on the number of eggs per 100 cc of soil, the field was classified as low to high pressure, where about 0 to about 180 eggs per 100 cc of soil was considered to be low pressure, about 180 eggs to about 1100 eggs per 100 cc of soil was considered to be medium pressure, and greater than about 1100 eggs per 100 cc of soil was considered to be high pressure. Lines were planted in four medium and four high pressure fields containing race 1 soybean cyst nematodes. The medium pressure fields contained 536 eggs per 100 cc of soil while the high pressure fields contained 1645 eggs per 100 cc of soil. Yield was determined at harvest. The lines derived from Peking germplasm provided protection against race 1 SCN while the lines derived from PI88788 germplasm provided protection against race 3 SCN.

For test [3], the system named is SCN. The test can be described thus: Greenhouse trials: susceptible soybean line challenged with SCN with and without the compound (all plants with Acceleron). Conditions: presence vs absence of the compound, all plants treated with ACCELERON
The procedure:
as §1, with “3''×3''” for “3″×3″”, “replications. […] All plants were treated with […]® (Monsanto Company, St. Louis, Mo., USA) to reduce fungal disease.” for “replications.”

Consider `c1ccc(-c2noc(-c3cccs3)n2)cc1` [3-phenyl-5-(thiophen-2-yl)-1,2,4-oxadiazole], for which the “resistance to race 2 SCN (number of SCN cysts on soybean roots)” value with race 2 SCN is on record as “enhances resistance to race 2 SCN”. Besides, the “Average Yield” value in the test on SCN [1] stood at 55.7 BU/A. The “yield, treated vs untreated” value was “unexpected statistically higher yield” in test [2] (high pressure field, 1645 eggs per 100 cc soil, Peking-moderately resistant (Line 2) and PI88788-moderately resistant (Line 5), FIG. 6); “no statistical difference” in test [2] (high pressure field, 1645 eggs per 100 cc soil, Peking-resistant (Line 3), PI88788-sensitive (Line 4), PI88788-resistant (Line 6)); “statistically higher yield than untreated” in test [2] (high pressure field, 1645 eggs per 100 cc soil, Peking-sensitive line (Line 1)); “No statistical difference in yield” in test [2] (medium pressure field, 536 eggs per 100 cc soil, Peking or PI88788 sensitive, moderately resistant and resistant lines, FIG. 5). In test [2] (high pressure field, average of the two moderately resistant lines), the “yield advantage compared to untreated” value is 5.8 bushel per acre. In addition, in test [2] (high race 1 SCN pressure, about 1645 SCN eggs/100 cc soil), the “yield in field tests (legend of FIG. 6)” value is listed as “increase in yield”. In addition, in test [2] (low race 1 SCN pressure, about 536 SCN eggs/100 cc soil), the “yield in field tests (legend of FIG. 5)” value is listed as “increase in yield”. The SCN cyst counts entry in the test with SCN [3] is “lower SCN cyst counts”.
